Data reported in patent US20080274892A1, “Novel Haloalkylsulfonanilide Derivative, Herbicide, and Method of Use Thereof” (priority 2005, published 2008).

Columns and labels:
bulrush [1] = assay: Test Example 1: herbicidal efficacy on rice paddy weeds pre-emergence; assay type: in vivo, Scirpus juncoides; settings: dosage 1000 g/ha, 21 days
false pimpernel [2] = assay: as above; assay type: in vivo, Lindernia pyxidaria; settings: dosage 1000 g/ha, 21 days
barnyard glass = assay: Test Example 2: herbicidal efficacy on rice paddy weeds post-emergence; assay type: in vivo, Echinochloa crus-galli; settings: dosage 1000 g/ha; post-emergence, one leaf stage; 21 days after treatment
How it was run: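 Efficacy on paddy weeds was scored on a 0 to 4 growth-inhibition scale: 4 for 90%-100%, 3 for 70%-89%, 2 for 40%-69%, 1 for 1%-39% and 0 for 0%. Barnyard glass was grown in clay loam in 75 cm^2 pots under 5 cm of water in a hot house. It was compared with untreated pots 21 days after treatment.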

bulrush [3] = assay: as above; assay type: in vivo, Scirpus juncoides; settings: dosage 1000 g/ha; post-emergence, one leaf stage; 21 days after treatment
false pimpernel [4] = assay: as above; assay type: in vivo, Lindernia pyxidaria; settings: dosage 1000 g/ha; post-emergence, one leaf stage; 21 days after treatment
[5] = system: paddy rice plant (cultivar: Nihonbare); assay: Test Example 3: phytotoxicity test for transplanted paddy rice plant; assay type: in vivo; settings: dosage 1000 g/ha; transplanted rice, treated 5 days after transplantation; 21 days after treatment
How it was run: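 Clay loam soil was placed in a 75 cm^2 plastic pot and flooded to a water depth of 5 cm. Two Nihonbare paddy rice plants at the two-leaf stage were transplanted 1 cm deep and grown in a hot house. After treatment, pots stayed in the hot house for 21 days, and phytotoxicity was then graded against an untreated control.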

bulrush [6] = assay: Test Example 4: low dosage test for rice paddy weeds; assay type: in vivo, Scirpus juncoides; settings: 300 g/ha as an active ingredient; plants treated at the one leaf stage; 21 days after treatment; vs untreated control
How it was run: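 Compound applied as a formulation at 300 g/ha to one-leaf bulrush grown in flooded clay loam (5 cm water) in a hot house. After 21 days, growth inhibition versus untreated plants rated on a 0–4 scale, with 4 meaning 90–100%.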

[7] = system: transplanted paddy rice plant and Bulrush; assay: Test Example 5: selectivity between transplanted paddy rice plant and weeds; assay type: in vivo; settings: (highest dosage with no phytotoxicity to paddy rice)/(lowest dosage with effective level 4 on Bulrush); rice 3000-100 g/ha, Bulrush 300-10 g/ha; 21 days
How it was run: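 Scoring ran 21 days after treatment in a hothouse on a 0–4 scale (4 = 90–100%, 3 = 70–89%, 2 = 40–69%, 1 = 1–39%, 0 = none) relative to untreated plants. Post-emergence bulrush received 10, 30, 100 and 300 g/ha active ingredient. Transplanted rice received 100, 300, 1000 and 3000 g/ha to assess crop injury.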

| SMILES | Bulrush pre (herbicidal efficacy grade) (bulrush [1]) | False pimpernel pre (herbicidal efficacy grade) (false pimpernel [2]) | Burnyard grass post (herbicidal efficacy grade) (barnyard glass) | Bulrush post (herbicidal efficacy grade) (bulrush [3]) | False pimpernel post (herbicidal efficacy grade) (false pimpernel [4]) | Phytotoxicity to paddy rice [5] | Herbicide effect to Bulrush (bulrush [6]) | Selective Index [7] |
| --- | --- | --- | --- | --- | --- | --- | --- | --- |
| CCC(C)COC(=O)N(c1ccccc1CN1CC(C)(C)OC1=O)S(=O)(=O)C(F)(F)F (stereo not drawn) [1-67] | 4 (90%-100% of herbicidal efficacy or phytotoxicity) | 4 (90%-100% of herbicidal efficacy or phytotoxicity) | 4 (90%-100% of herbicidal efficacy or phytotoxicity) | 4 (90%-100% of herbicidal efficacy or phytotoxicity) | 4 (90%-100% of herbicidal efficacy or phytotoxicity) | 1 (1%-39% of herbicidal efficacy or phytotoxicity) | 4 (90%-100% of herbicidal efficacy or phytotoxicity) | ≧30 |
| CCCCC(CC)COC(=O)N(c1ccccc1CN1CC(C)(C)OC1=O)S(=O)(=O)C(F)(F)F (stereo not drawn) [1-68] | 4 (90%-100% of herbicidal efficacy or phytotoxicity) | 4 (90%-100% of herbicidal efficacy or phytotoxicity) | 4 (90%-100% of herbicidal efficacy or phytotoxicity) | 4 (90%-100% of herbicidal efficacy or phytotoxicity) | 4 (90%-100% of herbicidal efficacy or phytotoxicity) | 1 (1%-39% of herbicidal efficacy or phytotoxicity) | 4 (90%-100% of herbicidal efficacy or phytotoxicity) | 10 |
| CC1(C2CC2)CN(Cc2ccccc2NS(=O)(=O)C(F)(F)F)C(=O)O1 (stereo not drawn) [1-71] | 4 (90%-100% of herbicidal efficacy or phytotoxicity) | 4 (90%-100% of herbicidal efficacy or phytotoxicity) | 4 (90%-100% of herbicidal efficacy or phytotoxicity) | 4 (90%-100% of herbicidal efficacy or phytotoxicity) | 4 (90%-100% of herbicidal efficacy or phytotoxicity) | 1 (1%-39% of herbicidal efficacy or phytotoxicity) | 4 (90%-100% of herbicidal efficacy or phytotoxicity) | 10 |
| CC(C)COC(=O)N(c1ccccc1CN1CC(C)(C2CC2)OC1=O)S(=O)(=O)C(F)(F)F (stereo not drawn) [1-72] | 4 (90%-100% of herbicidal efficacy or phytotoxicity) | 4 (90%-100% of herbicidal efficacy or phytotoxicity) | 4 (90%-100% of herbicidal efficacy or phytotoxicity) | 4 (90%-100% of herbicidal efficacy or phytotoxicity) | 4 (90%-100% of herbicidal efficacy or phytotoxicity) | 1 (1%-39% of herbicidal efficacy or phytotoxicity) | 4 (90%-100% of herbicidal efficacy or phytotoxicity) | 10 |
| CCCOC(=O)N(c1ccccc1CN1CC(C)(C)OC1=O)S(=O)(=O)C(F)(F)F [1-75] | 4 (90%-100% of herbicidal efficacy or phytotoxicity) | 4 (90%-100% of herbicidal efficacy or phytotoxicity) | 4 (90%-100% of herbicidal efficacy or phytotoxicity) | 4 (90%-100% of herbicidal efficacy or phytotoxicity) | 4 (90%-100% of herbicidal efficacy or phytotoxicity) | 1 (1%-39% of herbicidal efficacy or phytotoxicity) | 4 (90%-100% of herbicidal efficacy or phytotoxicity) | ≧30 |
| CC(C)OC(=O)N(c1ccccc1CN1CC(C)(C)OC1=O)S(=O)(=O)C(F)(F)F [1-76] | 4 (90%-100% of herbicidal efficacy or phytotoxicity) | 4 (90%-100% of herbicidal efficacy or phytotoxicity) | 4 (90%-100% of herbicidal efficacy or phytotoxicity) | 4 (90%-100% of herbicidal efficacy or phytotoxicity) | 4 (90%-100% of herbicidal efficacy or phytotoxicity) | 2 (40%-69% of herbicidal efficacy or phytotoxicity) | 4 (90%-100% of herbicidal efficacy or phytotoxicity) | 30 |
| CC(C)OCCOC(=O)N(c1ccccc1CN1CC(C)(C)OC1=O)S(=O)(=O)C(F)(F)F [1-78] | 4 (90%-100% of herbicidal efficacy or phytotoxicity) | 4 (90%-100% of herbicidal efficacy or phytotoxicity) | 4 (90%-100% of herbicidal efficacy or phytotoxicity) | 4 (90%-100% of herbicidal efficacy or phytotoxicity) | 4 (90%-100% of herbicidal efficacy or phytotoxicity) | 1 (1%-39% of herbicidal efficacy or phytotoxicity) | 4 (90%-100% of herbicidal efficacy or phytotoxicity) | 10 |
| C#CCOC(=O)N(c1ccccc1CN1CC(C)(C)OC1=O)S(=O)(=O)C(F)(F)F [1-79] | 4 (90%-100% of herbicidal efficacy or phytotoxicity) | 4 (90%-100% of herbicidal efficacy or phytotoxicity) | 4 (90%-100% of herbicidal efficacy or phytotoxicity) | 4 (90%-100% of herbicidal efficacy or phytotoxicity) | 4 (90%-100% of herbicidal efficacy or phytotoxicity) | 2 (40%-69% of herbicidal efficacy or phytotoxicity) | 4 (90%-100% of herbicidal efficacy or phytotoxicity) | 10 |
| CCOC(=O)N(c1ccccc1CN1CC(C)(C)OC1=O)S(=O)(=O)C(F)(F)F [1-80] | 4 (90%-100% of herbicidal efficacy or phytotoxicity) | 4 (90%-100% of herbicidal efficacy or phytotoxicity) | 4 (90%-100% of herbicidal efficacy or phytotoxicity) | 4 (90%-100% of herbicidal efficacy or phytotoxicity) | 4 (90%-100% of herbicidal efficacy or phytotoxicity) | 2 (40%-69% of herbicidal efficacy or phytotoxicity) | 4 (90%-100% of herbicidal efficacy or phytotoxicity) | 30 |
| COCCOC(=O)N(c1ccccc1CN1CC(C)(C)OC1=O)S(=O)(=O)C(F)(F)F [1-81] | 4 (90%-100% of herbicidal efficacy or phytotoxicity) | 4 (90%-100% of herbicidal efficacy or phytotoxicity) | 4 (90%-100% of herbicidal efficacy or phytotoxicity) | 4 (90%-100% of herbicidal efficacy or phytotoxicity) | 4 (90%-100% of herbicidal efficacy or phytotoxicity) | 2 (40%-69% of herbicidal efficacy or phytotoxicity) | 4 (90%-100% of herbicidal efficacy or phytotoxicity) | 30 |
| C=CCOC(=O)N(c1ccccc1CN1CC(C)(C)OC1=O)S(=O)(=O)C(F)(F)F [1-82] | 4 (90%-100% of herbicidal efficacy or phytotoxicity) | 4 (90%-100% of herbicidal efficacy or phytotoxicity) | 4 (90%-100% of herbicidal efficacy or phytotoxicity) | 4 (90%-100% of herbicidal efficacy or phytotoxicity) | 4 (90%-100% of herbicidal efficacy or phytotoxicity) | 2 (40%-69% of herbicidal efficacy or phytotoxicity) | 4 (90%-100% of herbicidal efficacy or phytotoxicity) | ≧30 |
| CC1(C)CN(Cc2ccccc2N(C(=O)Oc2ccccc2)S(=O)(=O)C(F)(F)F)C(=O)O1 [1-85] | 4 (90%-100% of herbicidal efficacy or phytotoxicity) | 4 (90%-100% of herbicidal efficacy or phytotoxicity) | 4 (90%-100% of herbicidal efficacy or phytotoxicity) | 4 (90%-100% of herbicidal efficacy or phytotoxicity) | 4 (90%-100% of herbicidal efficacy or phytotoxicity) | 2 (40%-69% of herbicidal efficacy or phytotoxicity) | 4 (90%-100% of herbicidal efficacy or phytotoxicity) | 10 |
